Source: US10314825B2, “Agent for treatment of PBC” (KOWA COMPANY, LTD., priority 2017, dated 2019)

How the values were obtained:
Type in all cases: in vivo, human
[1] = tested on: patients with dyslipidemia showing a high level of triglyceride (TG); assay: Changes in ALP levels after 12 weeks, clinical trial data (Example 1); conditions: for ALP level, Rate of change (LSmean): 12 weeks vs baseline
Description: Compound A was administered at a dose of 0.05 to 0.4 mg per day to Compound A group. […] Note that comparisons between the groups were investigated by using covariance analysis with baseline levels used as covariates.

[2] = tested on: patients with dyslipidemia showing a high level of TG being treated with ursodeoxycholic acid; assay: Changes in total bilirubin levels after 12 weeks in patients being treated with ursodeoxycholic acid (Example 2); conditions: 0.05 to 0.4 mg per day
Description: (§1) Data of patients being treated with ursodeoxycholic acid (15 cases in total) were extracted from the data obtained in a clinical trial (8 tests with an administration period of 12 weeks or more) of Compound A, which had been performed for patients with dyslipidemia showing a high level of TG, the effects of Compound A for the ALP and the total bilirubin were investigated. Compound A was administered at a dose of 0.05 to 0.4 mg per day to Compound A group. Further, placebo was administered to a control group. Each compound was administered to Compound A group and a control group for 12 weeks, and changes in the levels of ALP before and after the administration are shown in Table 3 and FIG. 3, and changes in the levels of total bilirubin before and after the administration are shown in Table 4 and FIG. 4. Note that comparisons between the groups were investigated by using covariance analysis with baseline levels used as covariates.

[3] = tested on: patients with dyslipidemia showing a high level of TG being treated with ursodeoxycholic acid; assay: Changes in ALP levels after 12 weeks in patients being treated with ursodeoxycholic acid (Example 2); conditions: 0.05 to 0.4 mg per day
Description: as §1

[4] = tested on: patients with dyslipidemia showing a high level of triglyceride (TG); assay: Changes in total bilirubin levels after 12 weeks, clinical trial data (Example 1); conditions: for total bilirubin level, Rate of change (LSmean): 12 weeks vs baseline
Description: By using data (1965 cases in total) obtained in a clinical trial (8 tests with an administration period of 12 weeks or more) of Compound A, which had been performed for patients with dyslipidemia showing a high level of triglyceride (TG), the effects of Compound A for ALP and total bilirubin were investigated. Compound A was administered at a dose of 0.05 to 0.4 mg per day to Compound A group. […] Each compound was administered to Compound A group and a control group for 12 weeks, and changes in the levels of ALP before and after the administration are shown in Table 1 and FIG. 1, and changes in the levels of total bilirubin before and after the administration are shown in Table 2 and FIG. 2. Note that comparisons between the groups were investigated by using covariance analysis with baseline levels used as covariates.

[5] = 0.05 to 0.4 mg per day, 12 weeks
[6] = 100 mg/day micronized fenofibrate capsule formulation
[7] = 106.6 mg/day solid dispersion fenofibrate tablet

Compound	effect on level of ALP as compared with placebo [1, 5]	effect on level of ALP compared with fenofibrate at the maximum clinical dose (200 mg per day) ([1]; dose of 0.1 mg or more, 12 weeks)	effect on level of total bilirubin [2]	effect on level of ALP [3]	effect on level of total bilirubin as compared with placebo [4, 5]	ALP level, Rate of change (LSmean) [1, 6]	ALP level, 12 Weeks ([1]; 100 mg/day micronized fenofibrate capsule formulation, 12 weeks, baseline 226.3)	ALP level, Rate of change (LSmean) [1, 7]	ALP level, 12 Weeks ([1]; 106.6 mg/day solid dispersion fenofibrate tablet, 12 weeks, baseline 235.3)	ALP level, 12 Weeks ([1]; 200 mg/day micronized fenofibrate capsule formulation, 12 weeks, baseline 222.5)	total bilirubin level, Rate of change (LSmean) [4, 6]	total bilirubin level, 12 Weeks ([4]; 100 mg/day micronized fenofibrate capsule formulation, 12 weeks, baseline 0.8)	total bilirubin level, Rate of change (LSmean) [4, 7]	total bilirubin level, 12 Weeks ([4]; 106.6 mg/day solid dispersion fenofibrate tablet, 12 weeks, baseline 0.8)	total bilirubin level, Rate of change (LSmean) ([4]; 200 mg/day micronized fenofibrate capsule formulation)	total bilirubin level, 12 Weeks ([4]; 200 mg/day micronized fenofibrate capsule formulation, 12 weeks, baseline 0.9)
CC[C@@H](Oc1cccc(CN(CCCOc2ccc(OC)cc2)c2nc3ccccc3o2)c1)C(=O)O [Compound A, (R)-2-[3-[[N-(benzoxazol-2-yl)-N-3-(4-methoxyphenoxy)propyl]aminomethyl]phenoxy] butyric acid]	decreases dose-dependently	decreases the level of ALP more strongly than the fenofibrate	decreases the levels of ALP and total bilirubin	decreases the levels of ALP and total bilirubin	decreases dose-dependently											
CC(C)OC(=O)C(C)(C)Oc1ccc(C(=O)c2ccc(Cl)cc2)cc1 [fenofibrate]						−11.1	198.7 IU/L	−14.7	198.8 IU/L	182.5 IU/L	−5.2	0.7 mg/dL	−4.2	0.7 mg/dL	−9.3	0.7 mg/dL
